Laboratory results from patent US20250277794A1, “SQSTM1 AND ITS USE IN CANCER THERAPY” (CENTRE NATIONAL DE LA RECHERCHE SCIENTIFIQUE, priority 2020, published 2025).

Experiments:
Assay type in all cases: cell-based, human
[1] = system: shControl (ShC) A549 cells; assay: Cell viability / Crystal Violet Cytotoxicity Assay, dose-response IC50, shControl A549 cells
Protocol: (§1) The majority of experiments presented in this study was performed with the human KRAS G12S/SKT11 Q37* co-mutated NSCLC A549 cells (American Type Tissue Collection, ATCC). All cells were maintained in Dulbecco's-modified minimum essential medium and Ham's F-12 medium (DMEM/F12 Glutamax; Life Technologies) supplemented with 10% fetal bovine serum (Dutcher), 2% Sodium Pyruvate, and 1% Penicillin-Streptomycin (Life technologies). To establish SQSTM1 knockdown stable cell lines, cells were transduced with small hairpin RNAs (shRNAs) lentiviruses that target the mRNA coding sequence of SQSTM1. Two distinct SQSTM1 shRNAs (Sigma, human, NM_003900, SQSTM1 #1, TRCN0000007237, and SQSTM1 #2, TRCN0000007236) were used to minimize sequence-dependent off-target effects. As controls, autophagy was inhibited at the initiation step by ATG5 (Sigma, human, NM_004849, ATG5 #1, TRCN0000151963) or ATG7 shRNA (Sigma, human, NM_006395, TRCN0000007584). For this purpose, the targeted and control (Sigma; SHC002V) shRNA lentivirus were transduced into the cells. ShRNA-mediated protein downregulation was controlled by qRT-PCR or immunoblotting with specific primers and antibodies (see for shRNA, primer, and antibody details the supplemental Tables 1 to 3).
(§2) For all experiments, cells were seeded in 6-well plates or 60 mm culture dishes and incubated until they reached 60-70% confluency.

[2] = system: ShSQSTM1 A549 cells; assay: Cell viability / Crystal Violet Cytotoxicity Assay, dose-response IC50, shSQSTM1 A549 cells
Protocol: as §1, §2

[3] = system: HLA-B and PD-L1 expression in ShC A549 cells; assay: IFN/HLA-B/PD-L1 pathway expression (qRT-PCR, western blot, flow cytometry) in shControl A549 cells; details: for Induction of HLA-B and PD-L1 expression: ShC (SQSTM1 positive) A549 cells, 5-Aza 500 nM, 5 and 6 days, IFNG 50 ng/ml
[4] = system: HLA-B and PD-L1 expression in ShSQSTM1 A549 cells; assay: IFN/HLA-B/PD-L1 pathway expression (qRT-PCR, western blot, flow cytometry) in SQSTM1-depleted A549 cells; details: docetaxel 5 nM; for TBK1/STAT1 phosphorylation and expression of IFN, HLA-B and PD-L1 in SQSTM1-depleted cells: Cisplatin 10 μM, IFNG 50 ng/ml
Protocol: as §2
Quantitative real-time polymerase chain reaction analysis was performed on equal amounts of cDNA using the SYBR Green master mix and an Applied StepOne Plus PCR system (Life technologies). Relative gene expression changes were quantified using the 2 [−ΔΔCt] method and normalized to the housekeeping gene RPLP0 compared to the untreated cell samples.
Cell-surface expression of PD-L1 was examined using flow cytometry. […] Flow cytometry analysis was performed on a Cytoflex flow cytometer (10,000 cells, Cytoflex software). The MFI (PD-L1-isotype) is calculated as the MFI (PD-L1) is subtracted by the MFI (isotype control).

[5] = system: 53BP1-positive foci in A549 cells; assay: Global DNA damage measured by 53BP1 focus formation (immunofluorescence); details: Cisplatin 10 μM, FIG. 18
Protocol: At the indicated time, global DNA damage (A) was measured by 53BP1 focus formation (right immunofluorescence staining, 53BP1 red, Dapi, blue. Left, cell percentage with more than five spots).

[6] = Homo sapiens, Shc A549, dose-response curves (Cell Treatments)
[7] = Homo sapiens, ShSQSTM1 A549, dose-response curves (Cell Treatments)
[8] = Shc A549, dose-response curves (Cell Treatments)
[9] = ShSQSTM1 A549, dose-response curves (Cell Treatments)

Molecule	IC50 [1, 6]	IC50 [2, 7]	TBK1/STAT1 phosphorylation and expression of IFN, HLA-B and PD-L1 in SQSTM1-depleted cells [4]	Induction of HLA-B and PD-L1 expression [3]	further results
CC(=O)O[C@H]1C(=O)[C@@]2(C)[C@H]([C@H](OC(=O)c3ccccc3)[C@]3(O)C[C@H](OC(=O)[C@H](O)[C@@H](NC(=O)c4ccccc4)c4ccccc4)C(C)=C1C3(C)C)[C@]1(OC(C)=O)CO[C@@H]1C[C@@H]2O [Paclitaxel]	1.4 nM	3.7 nM	–	–	–
O=C(NCCCNc1nc(Nc2cccc(CN3CCOCC3)c2)ncc1C1CC1)C1CCC1 [MRT 67307]	–	–	–	–	Block of Cisplatin ability to induce IFN/HLA B/PD-L1 ([3]; co-treatment with Cisplatin 10 μM, MRT 67307 10 μM, Ruxolitinib 5 μM, FIG. 26): sufficient to block
CO/C1=C\C(C)=C\[C@@H](C)[C@@H](O)[C@@H](C)C/C(C)=C/C=C/[C@H](OC)[C@@H]([C@@H](C)[C@@H](O)[C@H](C)[C@@]2(O)C[C@@H](O)[C@H](C)[C@@H](C(C)C)O2)OC1=O [bafA1]	–	–	–	–	HLA-B and PD-L1 expression on pharmacological autophagy inhibition ([3]; A549 cells, data not shown): enhanced expression of HLA-B and PD-L1
CC(=O)O[C@@]12CO[C@@H]1C[C@H](O)[C@@]1(C)C(=O)[C@H](O)C3=C(C)[C@@H](OC(=O)[C@H](O)[C@@H](NC(=O)OC(C)(C)C)c4ccccc4)C[C@@](O)([C@@H](OC(=O)c4ccccc4)[C@H]21)C3(C)C [Docetaxel]	364 nM	21.3 nM	significantly rescued	–	Growth arrest and DNMT1 downregulation ([4]; qRT-PCR): did trigger growth arrest and DNMT1 downregulation; Growth arrest and DNMT1 downregulation ([3]; Shc A549 cells, docetaxel 5 nM, qRT-PCR): did trigger growth arrest and DNMT1 downregulation
N.N.[Cl][Pt][Cl] [Cisplatin]	–	–	did not up-regulate	most effective drug for inducing HLA-B and PD-L1	IC50 [1, 8]: 24000 nM; IC50 ([1]; control ShC A549 cells, Cisplatin 5 days, FIG. 14): 24000 ± 1400 nM; Start of formation of 53BP1-positive foci [5]: 6 h; Time of peak value of 53BP1-positive foci [5]: 16 h; IC50 [2, 9]: 47700 nM; IC50 ([2]; ShSQSTM1 A549 cells, Cisplatin 5 days, FIG. 14): 51000 ± 5300 nM
COc1cccc2c1C(=O)c1c(O)c3c(c(O)c1C2=O)C[C@@](O)(C(=O)CO)C[C@@H]3O[C@H]1C[C@H](N)[C@H](O)[C@H](C)O1 [Doxorubicin]	364 nM	486 nM	–	recapitulated the late induction of this pathway	–
Nc1ncn([C@@H]2O[C@H](CO)[C@@H](O)[C@H]2O)c(=O)n1 [5-Azacytidine]	–	–	–	recapitulated the late expression of HLA-B and PD-L1	–
O=C1[O][Pt]2([NH][C@@H]3CCCC[C@H]3[NH]2)[O]C1=O [Oxaliplatin]	–	–	–	recapitulated the late induction of this pathway	IC50 [1, 8]: 2610 nM; IC50 [2, 9]: 4510 nM
IFNG: IFNγ (C-60724 Promokine), positive control (protein, UniProt P01579 24-161, looked up) Interferon gamma: QDPYVKEAENLKKYFNAGHSDVADNGTLFLGILKNWKEESDRKIMQSQIVSFYFKLFKNFKDDQSIQKSVETIKEDMNVKFFNSNKKKRDDFEKLTNYSVTDLNVQRKAIHELIQVMAELSPAAKTGKRKRSQMLFRG	–	–	induced STAT1 phosphorylation, HLA-B, and PD-L1 expression	induced STAT1 phosphorylation, HLA-B, and PD-L1 expression	–
